Results taken from ChEMBL document CHEMBL3885861, “Open TG-GATES”.

Species on record: Rattus norvegicus
Assay: Open TG-GATES - Regimen: Daily Repeat
Assay type: toxicity, organism-based, Sprague-Dawley
Design: regimen Daily Repeat, gender Male, age 6 weeks
Conditions: in vivo, po, route gavage; for APTT / Bas / Eos / Fbg / Hb / Ht / Lym / MCH / MCHC / MCV / Mono / Neu / PT / Plat / RBC / Ret / WBC: tissue Blood; for KIDNEY_L / KIDNEY_R / KIDNEY_TOTAL: tissue Kidney; for LIVER: tissue Liver; for A/G / ALP / ALT / AST / BUN / CRE / Ca / Cl / DBIL / GLC / IP / K / LDH / Na / PL / RALB / TBIL / TC / TG / TP / gamma-GTP: tissue Plasma
[1] = 0 mg/kg, 72 h, dose level Control, time 3 day
[2] = 0 mg/kg, […], dose level Control, time 7 day
[3] = 0 mg/kg, […], dose level Control, time 14 day
[4] = 0 mg/kg, […], dose level Control, time 28 day
[5] = 100 mg/kg, 72 h, dose level Low, time 3 day
[6] = 100 mg/kg, […], dose level Low, time 7 day
[7] = 100 mg/kg, […], dose level Low, time 14 day
[8] = 100 mg/kg, […], dose level Low, time 28 day

## Cc1nnc2n1-c1ccc(Cl)cc1C(c1ccccc1Cl)=NC2 [TRIAZOLAM]
[1]
  TERMINAL_BW: 223.3 g
  APTT: 19.2 s
  Bas: 0%
  Eos: 1.2%
  Fbg: 272.8 mg/dL
  Hb: 13.7 g/dL
  Ht: 40.9%
  Lym: 75.6%
  MCH: 21 pg
  MCHC: 33.5%
  MCV: 62.7 fL
  Mono: 3%
  Neu: 19.2%
  PT: 13 s
  Plat: 121.4 x10_4/uL
  RBC: 651.8 x10_4/ul
  Ret: 7.4%
  WBC: 85.5 x10_2/uL
  KIDNEY_L: 1 g
  KIDNEY_R: 1 g
  KIDNEY_TOTAL: 1.9 g
  LIVER: 10.5 g
  A/G: 0.9
  ALP: 1815 IU/L
  ALT: 48.2 IU/L
  AST: 75.8 IU/L
  BUN: 15 mg/dL
  CRE: 0.2 mg/dL
  Ca: 11.3 mg/dL
  Cl: 104.8 meq/L
  DBIL: 0.014 mg/dL
  GLC: 172.2 mg/dL
  IP: 8.4 mg/dL
  K: 4 meq/L
  LDH: 74.8 IU/L
  Na: 143.2 meq/L
  PL: 168.8 mg/dL
  RALB: 2.6 g/dL
  TBIL: 0.054 mg/dL
  TC: 86.4 mg/dL
  TG: 126 mg/dL
  TP: 5.6 g/dL
  gamma-GTP: 1.2 IU/L
[2]
  TERMINAL_BW: 259.3 g
  APTT: 21.5 s
  Bas: 0%
  Eos: 1.2%
  Fbg: 262.4 mg/dL
  Hb: 13.7 g/dL
  Ht: 40.7%
  Lym: 76.4%
  MCH: 20.6 pg
  MCHC: 33.7%
  MCV: 61.2 fL
  Mono: 2.4%
  Neu: 19.4%
  PT: 12.8 s
  Plat: 126.9 x10_4/uL
  RBC: 665.6 x10_4/ul
  Ret: 5.6%
  WBC: 92.9 x10_2/uL
  KIDNEY_L: 1.1 g
  KIDNEY_R: 1.1 g
  KIDNEY_TOTAL: 2.2 g
  LIVER: 11.8 g
  A/G: 0.9
  ALP: 1652.6 IU/L
  ALT: 45.4 IU/L
  AST: 75 IU/L
  BUN: 16.8 mg/dL
  CRE: 0.2 mg/dL
  Ca: 10.9 mg/dL
  Cl: 105.8 meq/L
  DBIL: 0.01 mg/dL
  GLC: 188.2 mg/dL
  IP: 7.6 mg/dL
  K: 4.3 meq/L
  LDH: 73.6 IU/L
  Na: 141.8 meq/L
  PL: 161.6 mg/dL
  RALB: 2.6 g/dL
  TBIL: 0.042 mg/dL
  TC: 85 mg/dL
  TG: 122.8 mg/dL
  TP: 5.6 g/dL
  gamma-GTP: 1 IU/L
[3]
  TERMINAL_BW: 313.4 g
  APTT: 18.7 s
  Bas: 0.4%
  Eos: 1%
  Fbg: 250.2 mg/dL
  Hb: 14.4 g/dL
  Ht: 43.9%
  Lym: 74.6%
  MCH: 19.9 pg
  MCHC: 32.8%
  MCV: 60.6 fL
  Mono: 2.4%
  Neu: 21%
  PT: 13.6 s
  Plat: 122.6 x10_4/uL
  RBC: 723.8 x10_4/ul
  Ret: 4.5%
  WBC: 116.9 x10_2/uL
  KIDNEY_L: 1.2 g
  KIDNEY_R: 1.2 g
  KIDNEY_TOTAL: 2.4 g
  LIVER: 13.3 g
  A/G: 0.8
  ALP: 1514.4 IU/L
  ALT: 46 IU/L
  AST: 79.6 IU/L
  BUN: 15.4 mg/dL
  CRE: 0.2 mg/dL
  Ca: 10.9 mg/dL
  Cl: 104.4 meq/L
  DBIL: 0.012 mg/dL
  GLC: 172.4 mg/dL
  IP: 7.1 mg/dL
  K: 3.9 meq/L
  LDH: 90 IU/L
  Na: 143 meq/L
  PL: 167.4 mg/dL
  RALB: 2.6 g/dL
  TBIL: 0.044 mg/dL
  TC: 82.4 mg/dL
  TG: 135.6 mg/dL
  TP: 5.7 g/dL
  gamma-GTP: 1.4 IU/L
[4]
  TERMINAL_BW: 389.2 g
  APTT: 18.6 s
  Bas: 0.4%
  Eos: 1.4%
  Fbg: 262.6 mg/dL
  Hb: 15.3 g/dL
  Ht: 45.3%
  Lym: 79.6%
  MCH: 18.8 pg
  MCHC: 33.7%
  MCV: 55.8 fL
  Mono: 2%
  Neu: 15.8%
  PT: 13.4 s
  Plat: 106.8 x10_4/uL
  RBC: 812.8 x10_4/ul
  Ret: 2.1%
  WBC: 76.6 x10_2/uL
  KIDNEY_L: 1.4 g
  KIDNEY_R: 1.4 g
  KIDNEY_TOTAL: 2.7 g
  LIVER: 15.3 g
  A/G: 0.8
  ALP: 1373.8 IU/L
  ALT: 36.6 IU/L
  AST: 62 IU/L
  BUN: 15.4 mg/dL
  CRE: 0.2 mg/dL
  Ca: 10.7 mg/dL
  Cl: 105.8 meq/L
  DBIL: 0.008 mg/dL
  GLC: 185.8 mg/dL
  IP: 6.3 mg/dL
  K: 4.2 meq/L
  LDH: 57 IU/L
  Na: 144 meq/L
  PL: 158.4 mg/dL
  RALB: 2.7 g/dL
  TBIL: 0.056 mg/dL
  TC: 72.8 mg/dL
  TG: 159.8 mg/dL
  TP: 6.1 g/dL
  gamma-GTP: 1 IU/L
[5]
  TERMINAL_BW: 218.3 g
  APTT: 21.4 s
  Bas: 0%
  Eos: 1.2%
  Fbg: 274.2 mg/dL
  Hb: 13.8 g/dL
  Ht: 41.1%
  Lym: 74.2%
  MCH: 21.5 pg
  MCHC: 33.7%
  MCV: 63.9 fL
  Mono: 3.8%
  Neu: 20%
  PT: 13.2 s
  Plat: 117.9 x10_4/uL
  RBC: 643 x10_4/ul
  Ret: 6.6%
  WBC: 108.6 x10_2/uL
  KIDNEY_L: 1 g
  KIDNEY_R: 1 g
  KIDNEY_TOTAL: 1.9 g
  LIVER: 10.3 g
  A/G: 0.9
  ALP: 1550.6 IU/L
  ALT: 53.8 IU/L
  AST: 79 IU/L
  BUN: 14.2 mg/dL
  CRE: 0.2 mg/dL
  Ca: 11.1 mg/dL
  Cl: 104.6 meq/L
  DBIL: 0.012 mg/dL
  GLC: 166.2 mg/dL
  IP: 8.1 mg/dL
  K: 4 meq/L
  LDH: 88.2 IU/L
  Na: 141 meq/L
  PL: 142.4 mg/dL
  RALB: 2.6 g/dL
  TBIL: 0.054 mg/dL
  TC: 75.4 mg/dL
  TG: 76 mg/dL
  TP: 5.5 g/dL
  gamma-GTP: 1 IU/L
[6]
  TERMINAL_BW: 251.1 g
  APTT: 20.5 s
  Bas: 0%
  Eos: 0.8%
  Fbg: 251.8 mg/dL
  Hb: 13.9 g/dL
  Ht: 41.6%
  Lym: 74.8%
  MCH: 20.9 pg
  MCHC: 33.5%
  MCV: 62.4 fL
  Mono: 2.2%
  Neu: 21.4%
  PT: 13 s
  Plat: 116.7 x10_4/uL
  RBC: 667 x10_4/ul
  Ret: 6.1%
  WBC: 109.2 x10_2/uL
  KIDNEY_L: 1.1 g
  KIDNEY_R: 1 g
  KIDNEY_TOTAL: 2.1 g
  LIVER: 11.9 g
  A/G: 0.9
  ALP: 1700.8 IU/L
  ALT: 48.8 IU/L
  AST: 75.6 IU/L
  BUN: 16.6 mg/dL
  CRE: 0.2 mg/dL
  Ca: 10.9 mg/dL
  Cl: 105.2 meq/L
  DBIL: 0.012 mg/dL
  GLC: 192.4 mg/dL
  IP: 6.9 mg/dL
  K: 4.2 meq/L
  LDH: 77.4 IU/L
  Na: 141.4 meq/L
  PL: 157.4 mg/dL
  RALB: 2.6 g/dL
  TBIL: 0.036 mg/dL
  TC: 78.6 mg/dL
  TG: 104.8 mg/dL
  TP: 5.5 g/dL
  gamma-GTP: 1.4 IU/L
[7]
  TERMINAL_BW: 311.7 g
  APTT: 17.9 s
  Bas: 0.8%
  Eos: 1%
  Fbg: 253.2 mg/dL
  Hb: 14.4 g/dL
  Ht: 43.7%
  Lym: 77.2%
  MCH: 20.2 pg
  MCHC: 32.9%
  MCV: 61.6 fL
  Mono: 2.4%
  Neu: 18.4%
  PT: 13.4 s
  Plat: 117.2 x10_4/uL
  RBC: 710.8 x10_4/ul
  Ret: 4.8%
  WBC: 98 x10_2/uL
  KIDNEY_L: 1.2 g
  KIDNEY_R: 1.2 g
  KIDNEY_TOTAL: 2.4 g
  LIVER: 13.6 g
  A/G: 0.8
  ALP: 1617 IU/L
  ALT: 40.2 IU/L
  AST: 72.2 IU/L
  BUN: 16.2 mg/dL
  CRE: 0.2 mg/dL
  Ca: 10.8 mg/dL
  Cl: 104.8 meq/L
  DBIL: 0.008 mg/dL
  GLC: 189.6 mg/dL
  IP: 7.5 mg/dL
  K: 3.8 meq/L
  LDH: 83.4 IU/L
  Na: 142.6 meq/L
  PL: 151.8 mg/dL
  RALB: 2.7 g/dL
  TBIL: 0.04 mg/dL
  TC: 75 mg/dL
  TG: 118.2 mg/dL
  TP: 5.8 g/dL
  gamma-GTP: 1 IU/L
[8]
  TERMINAL_BW: 393.2 g
  APTT: 17.1 s
  Bas: 0.2%
  Eos: 1.2%
  Fbg: 277.4 mg/dL
  Hb: 15.2 g/dL
  Ht: 45.2%
  Lym: 78.4%
  MCH: 19 pg
  MCHC: 33.6%
  MCV: 56.6 fL
  Mono: 1.6%
  Neu: 17.6%
  PT: 13.2 s
  Plat: 110.7 x10_4/uL
  RBC: 798 x10_4/ul
  Ret: 2.4%
  WBC: 93.4 x10_2/uL
  KIDNEY_L: 1.4 g
  KIDNEY_R: 1.4 g
  KIDNEY_TOTAL: 2.8 g
  LIVER: 15.5 g
  A/G: 0.8
  ALP: 1207.4 IU/L
  ALT: 42 IU/L
  AST: 64.8 IU/L
  BUN: 15.2 mg/dL
  CRE: 0.2 mg/dL
  Ca: 10.7 mg/dL
  Cl: 105 meq/L
  DBIL: 0.01 mg/dL
  GLC: 178.8 mg/dL
  IP: 6.4 mg/dL
  K: 4.1 meq/L
  LDH: 67.2 IU/L
  Na: 143.6 meq/L
  PL: 142.6 mg/dL
  RALB: 2.7 g/dL
  TBIL: 0.054 mg/dL
  TC: 68.4 mg/dL
  TG: 125.4 mg/dL
  TP: 6.2 g/dL
  gamma-GTP: 0.8 IU/L
